Measured values published in patent EP4559898A1, “NOVEL IONIZABLE CATIONIC LIPIDS CONTAINING THIOETHER LINKAGE” (AldexChem Kft., priority 2023, dated 2025).

Key:
[1] = test system: HeLa; test: Transfection efficiency with Luciferase-mRNA (SecNLuc), Nano-Glo assay; type: cell-based; conditions: 24 hours, luminescence (Nano-Glo); for Transfection 10 ng mRNA: 10 ng SecNLuc mRNA/well; for Transfection 50 ng mRNA: 50 ng SecNLuc mRNA/well; for Transfection 100 ng mRNA: 100 ng SecNLuc mRNA/well
Experimental: • 1. Prepare mRNA solution by adding 100 ng mRNA (SecNLuc, #P009024, RiboPro) to 5 µl Opti-MEM • multiply by number of wells, include different concentrations and add 10% extra • a standard set-up we use is 100 ng - 50 ng - 10 ng mRNA/well in triplicate, which would need […] mRNA (includes 10% extra)
• 2. (If applicable) Prepare different concentrations in Opti-MEM (for instance 100/50/10 ng). • 3. Add 10 µl to each well and mix carefully by pipetting. • 4. Mix by swirling the plate horizontally at modest speed. Reverse in direction 3 times. • 5. Incubate for 24 hours (incubator).
This protocol is applied to measure luciferase activity for secreted NanoLuc and is based on the protocol by Promega (Nano-Glo® Luciferase Assay System #N1110-1150). The protocol is designed for a 384-wells plate, but volumes can be changed accordingly for other plates.
• 1. Plate cells (HeLa) in 96-well plate, grow until 80% confluent and transfect with SecNanoLuc mRNA and incubate for the desired period (24h). • 2. After incubation, the translated protein is accumulated in the medium. Transfer medium to a new plate or tubes . • 3. Transfer 12 µl of each sample to a black-walled, clear-bottom 384-well plate Black-walled plates are important to prevent shine-through of luminescence from other wells; alternatively, multiple wells between samples can be left empty. • 4. Set-up plate reader • 5. Prepare the desired amount of Nano-Gio® Luciferase Assay Reagent by combining one volume of Nano-Glo® Luciferase Assay Substrate with 50 volumes of Nano-Glo® Luciferase Assay Buffer: • a. composition: 100 mM MES pH 6; 1 mM EDTA; 0.5% […]; 150 mM KCl; 1 mM DTT; 35 mM Thiourea; • b. briefly spin tubes containing substrate in a microcentrifuge before use. • 6. Add and mix (by pipetting) 12 µl Nano-Glo® Luciferase Assay Reagent per well • Wait approximately 3 minutes before measuring luminescence. The luminescence intensity will decay gradually, with a signal half-life of approximately 120 minutes at room temperature. • 7. Measure luminescence in plate reader using standard protocol luciferase (this includes mixing sample in plate reader)

[2] = Encapsulation efficiency (RiboGreen assay) of mRNA-LNPs; type: physicochemical; conditions: mRNA-LNP formulated with tested lipid; RiboGreen with/without Triton X-100
Experimental: 1. Preparation of sample stock solutions: In the top row of the 96-well plate (Row A in the plate), add 297 µL of TE buffer pH 7.4 to a single well for each sample plus a single well for a PBS blank using a multichannel pipette. TE buffer preparation:
2. Add 3 µL of sample (at 0.5mg/ml) to these wells for a final volume of 300 µL. Add 3 µL of PBS to the blank well. Pipette to mix. This is your stock solution for each sample. The final RNA concentration of these stock solutions should be approximately 4-7 µg/mL. 3. mRNA-LNP sample setup: • a. Add 50 µL of TE buffer pH 7.5 to the two wells directly below each sample (Rows B and C in the plate). • b. Add 50 µL of sample stock solution from Row A into the wells in Rows B and C (this assay is run in duplicate. All liquid handling should be done using a multichannel pipette). • c. Add 50 µL of Triton buffer to the wells in Rows D and E (in the plate) below each sample. • d. Add 50 µL of sample stock solution from Row A into the wells in Rows D and E. 4. RiboGreen RNA standard curve setup: Dilute the RNA standard to produce an RNA stock at a final concentration of 20 µg/mL in TE buffer pH 7.4. The final volume should be 150 µL. Set up a standard curve (in duplicate) as using the RNA stock (20 µg/mL siRNA), TE buffer pH 7.5, and Triton X-100 buffer according the Table 2 below. Triton X-100 buffer preparation:
5. Once samples and standard curve are plated, incubate the plate at 37°C for 10 min to lyse mRNA-LNP in the presence of Triton X-100 buffer. 6. Meanwhile, prepare RiboGreen Solution: Sum the total number of sample wells and standard curve wells. Add three to this number, and multiply the total by 100. This is the total volume, in µL, of RiboGreen Solution needed for this assay. In a 15 mL RNAse-free Falcon tube, dilute the RiboGreen Reagent 1:100 into TE buffer pH 7.5 to the total volume calculated. 7. Addition of RiboGreen Solution and sample readings: Remove a 96-well plate from 37°C incubator; let it cool to room temperature as RiboGreen binding is somewhat temperature dependent. Add 100 µL of RiboGreen Solution to each well. Pop any air bubbles with a needle. Read using fluorescent plate reader (excitation = 480, emission = 525). 8. Sample analysis: Use the data generated by the RiboGreen standard curve to calculate the concentration of mRNA.

Structure (SMILES): CCCCCCCCCCSC(CCCC)C(=O)OCCCCCCN(CCO)CCCCCCOC(=O)C(CCCC)SCCCCCCCCCC (centres unmarked) [Example 4, ((2-hydroxyethyl)azanediyl)bis(hexane-6,1-diyl) bis(2-(decylthio)hexanoate)]
- Transfection 10 ng mRNA [1]: 2,53E+06
- Transfection 50 ng mRNA [1]: 1,23E+07
- Transfection 100 ng mRNA [1]: 8,17E+06
- EE [2]: 85%

Structure (SMILES): CCCCCCCCC(CCCCCC)C(=O)OCCCCCCN(CCCCO)CCCCCCOC(=O)C(CCCCCC)CCCCCCCC (centres unmarked) [ALC-0315 ref., reference compound]
- Transfection 10 ng mRNA [1]: 3,21E+06
- Transfection 50 ng mRNA [1]: 1.47E+07
- Transfection 100 ng mRNA [1]: 1,04E+07
- EE [2]: 94%

Structure (SMILES): CCCCCCCCCCSC(CCCCCCCC)C(=O)OCCCCCCN(CCCCO)CCCCCCOC(=O)C(CCCCCCCC)SCCCCCCCCCC (centres unmarked) [Example 7, ((4-hydroxybutyl)azanediyl)bis(hexane-6,1-diyl) bis(2-(decylthio)decanoate)]
- Transfection 10 ng mRNA [1]: 1,62E+06
- Transfection 50 ng mRNA [1]: 1,47E+07
- Transfection 100 ng mRNA [1]: 2,01E+07
- EE [2]: 92%

Structure (SMILES): CCCCCCCCCCSC(CCCC)C(=O)OCCCCCCN(CCCCCCOC(=O)C(CCCC)SCCCCCCCCCC)CCC1CCCN1C (centres unmarked) [Example 5, ((2-(1-methylpyrrolidin-2-yl)ethyl)azanediyl)bis(hexane-6,1-diyl) bis(2-(decylthio)hexanoate)]
- Transfection 10 ng mRNA [1]: 4,17E+05
- Transfection 50 ng mRNA [1]: 3,34E+06
- Transfection 100 ng mRNA [1]: 6,52E+06
- EE [2]: 96%

Structure (SMILES): CCCCCCCCCCCCCCSCC(=O)OCCCCCCN(CCCCO)CCCCCCOC(=O)CSCCCCCCCCCCCCCC [Example 10, ((4-hydroxybutyl)azanediyl)bis(hexane-6,1-diyl) bis(2-(tetradecylthio)acetate)]
- Transfection 10 ng mRNA [1]: 2,92E+05
- Transfection 50 ng mRNA [1]: 3,57E+06
- Transfection 100 ng mRNA [1]: 1,10E+07
- EE [2]: 83%

Structure (SMILES): CCCCCCCCC(SCCCCCCC)C(=O)OCCCCCCN(CCCCO)CCCCCCOC(=O)C(CCCCCCCC)SCCCCCCC (centres unmarked) [Example 6, ((4-hydroxybutyl)azanediyl)bis(hexane-6,1-diyl) bis(2-(heptylthio)decanoate)]
- Transfection 10 ng mRNA [1]: 3,47E+06
- Transfection 50 ng mRNA [1]: 1,83E+07
- Transfection 100 ng mRNA [1]: 2,52E+07
- EE [2]: 90%

Structure (SMILES): CCCCCCCCCCSC(CCCC)C(=O)OCCCCCCCCN(CCCCO)CCCCCCCCOC(=O)C(CCCC)SCCCCCCCCCC (centres unmarked) [Example 3, ((4-hydroxybutyl)azanediyl)bis(octane-8,1-diyl) bis(2-(decylthio)hexanoate)]
- Transfection 10 ng mRNA [1]: 9,69E+05
- Transfection 50 ng mRNA [1]: 1,02E+07
- Transfection 100 ng mRNA [1]: 1,37E+07
- EE [2]: 77%

Structure (SMILES): CCCCCCCCCCSC(CCCCCC)C(=O)OCCCCCCN(CCCCO)CCCCCCOC(=O)C(CCCCCC)SCCCCCCCCCC (centres unmarked) [Example 8, ((4-hydroxybutyl)azanediyl)bis(hexane-6,1-diyl) bis(2-(decylthio)octanoate)]
- Transfection 10 ng mRNA [1]: 2,80E+06
- Transfection 50 ng mRNA [1]: 1,36E+07
- Transfection 100 ng mRNA [1]: 1,11E+07
- EE [2]: 86%

Structure (SMILES): CCCCCCCSC(CCCCCC)C(=O)OCCCCCCN(CCCCO)CCCCCCOC(=O)C(CCCCCC)SCCCCCCC (centres unmarked) [Example 9, ((4-hydroxybutyl)azanediyl)bis(hexane-6,1-diyl) bis(2-(heptylthio)octanoate)]
- Transfection 10 ng mRNA [1]: 2,79E+06
- Transfection 50 ng mRNA [1]: 1,36E+07
- Transfection 100 ng mRNA [1]: 1,43E+07
- EE [2]: 67%

Structure (SMILES): CCCCCCCCCCSC(CCCC)C(=O)OCCCCCCN(CCCCO)CCCCCCOC(=O)C(CCCC)SCCCCCCCCCC (centres unmarked) [Example 1, ((4-hydroxybutyl)azanediyl)bis(hexane-6,1-diyl) bis(2-(decylthio)hexanoate)]
- Transfection 10 ng mRNA [1]: 3,81E+06
- Transfection 50 ng mRNA [1]: 1,83E+07
- Transfection 100 ng mRNA [1]: 1,69E+07
- EE [2]: 53%

Structure (SMILES): CCCCCCCCC(SCCCCC)C(=O)OCCCCCCN(CCCCO)CCCCCCOC(=O)C(CCCCCCCC)SCCCCC (centres unmarked) [Example 2, ((4-hydroxybutyl)azanediyl)bis(hexane-6,1-diyl) bis(2-(pentylthio)decanoate)]
- Transfection 10 ng mRNA [1]: 2,40E+06
- Transfection 50 ng mRNA [1]: 1,60E+07
- Transfection 100 ng mRNA [1]: 1,39E+07
- EE [2]: 55%
